CFUs data for one compound are collected here from patent US20230175032A1, “EFFICIENT SYNTHESIS OF OMEGA-GLYCOSIDES AND ALKYL GLYCOSIDES” (AMPHISTAR, priority 2020, published 2023).

The test system of this test is S. bombicola Δcyp52M1Δfao1 strain. The test is described as follows: shake flask cultivation fed with primary alcohols, viability as colony forming units. The format is cell-based, Starmerella bombicola. Conditions: alcohol added after 48 h of cultivation; in contrast to all other fed substrates (FIG. 8A). The method, then: Production experiments using S. bombicola were performed using the production medium described by Lang et al., (2000). For shake flask experiments, 5 mL tube cultures were set up 24 h (30° C.), before transferring to shake flasks (4% inoculation). Production experiments were executed with feeding of fatty alcohols: oleyl alcohol, stearyl alcohol, lauryl alcohol, myristyl alcohol or cetyl alcohol which were added after 48 h of cultivation. The Δcyp52M1Δfao1 strain was also assessed without addition of the hydrophobic alcohol. For every production experiment, cultivation was stopped when glucose was depleted from the medium. […]
Optical density (OD) of cultures was measured at 600 nm using the Jasco V 630 Bio spectrophotometer (Jasco Europe) of 1 mL samples diluted with physiological solution (9 g/L NaCl). The viability of yeast cells in cultivation experiments was assessed by determining colony forming units (CFUs) which were expressed as the average logarithm of CFUs per culture volume as log(CFU/mL) (Saerens, Saey, et al., 2011). Alternatively, Cell Dry Weight (CDW) was determined by centrifuging 1 mL fermentation samples at 14000 rpm for 5 min in tared Eppendorf tubes, and subsequently washing the cell pellets twice with 1 mL physiological solution. […] The CDW (g/L) was calculated after subtraction of the empty weight of the Eppendorf tube.

The structures appear in SMILES notation.

For the compound `CCCCCCCCCCCCO` [lauryl alcohol], the CFUs result was “significant drop”.
